For assay [1], the system named is N-methyl-D-aspartate receptor (NMDAR), NR1 subunit coagonist site. The assay is described as follows: whole-cell voltage clamp. Format: cell-based, Ambystoma tigrinum.
Assay [2] shares this test system. The assay is described as follows: whole-cell voltage clamp of retinal ganglion cells. On the set-up: species or system Ambystoma tigrinum.
Assay [3] has the same test system.

Results on three molecules are retold here after publication PMC2913692 (The European journal of neuroscience, 2010).

Where two headings read alike, the source gives them in different places.

For `O=C(O)c1cc(O)c2ccc(Cl)cc2n1` [7CKA, 7-chlorokynurenic acid], the “% of control at 25 μM” value in assay [1] is reported as 5.3 ± 1.0. In assay [2], `N[C@H](CO)C(=O)O` [D-serine] returned an EC50 of 3.48 ± 1.05 µM. In the case of `NCC(=O)O` [glycine], in assay [3], the midpoint of the response, the EC50, lay at 118 ± 48.1 µM.

What is called EC50 is the concentration that produces a half-maximal response. Low readings indicate higher potency in that assay, high ones lower potency in that assay.
